Measurements published in ChEMBL document CHEMBL1201862, “PubChem BioAssay data set” (2004).
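Compound exposure: 48 hours, 5 concentrations, 96-well plates. Here, GI50 denotes the concentration required for 50% inhibition of growth.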 Activity calls are given as the source filed them. No stated cut-off is given here; in the data, active = GI50 up to about 1.1 µM and inactive = higher.

Tests used:
Experiment in all cases: DTP human tumour cell line panel, 48 h
CAKI-1 = tested on: CAKI-1
HCC 2998 = tested on: HCC 2998
HCT-15 = tested on: HCT-15
HT-29 = tested on: HT-29
MOLT-4 = tested on: MOLT-4
NCI-H226 = tested on: NCI-H226
NCI-H23 = tested on: NCI-H23
NCI-H522 = tested on: NCI-H522
OVCAR-8 = tested on: OVCAR-8
RPMI-8226 = tested on: RPMI-8226
SF-268 = tested on: SF-268
SF-539 = tested on: SF-539
SK-MEL-28 = tested on: SK-MEL-28
SK-MEL-2 = tested on: SK-MEL-2
SK-OV-3 = tested on: SK-OV-3
SNB-19 = tested on: SNB-19
SNB-75 = tested on: SNB-75
SR = tested on: SR
U-251 = tested on: U-251
UO-31 = tested on: UO-31

| Structure (SMILES) | GI50 (CAKI-1) | GI50 (HCC 2998) | GI50 (HCT-15) [µM] | GI50 (HT-29) | GI50 (MOLT-4) | GI50 (NCI-H226) | GI50 (NCI-H23) | GI50 (NCI-H522) | GI50 (OVCAR-8) | GI50 (RPMI-8226) | GI50 (SF-268) | GI50 (SF-539) | GI50 (SK-MEL-28) | GI50 (SK-MEL-2) | GI50 (SK-OV-3) | GI50 (SNB-19) | GI50 (SNB-75) | GI50 (SR) | GI50 (U-251) | GI50 (UO-31) |
| --- | --- | --- | --- | --- | --- | --- | --- | --- | --- | --- | --- | --- | --- | --- | --- | --- | --- | --- | --- | --- |
| O=C(Nc1ccc(Cl)c(Cl)c1)C(=O)C(C(=O)c1ccccc1F)C1OC(=O)c2ccccc21 (stereo not given) | 35.2 µM (inactive) | 17.9 µM (inactive) | 13.7 | 34.4 µM (inactive) | 29.6 µM (inactive) | 17.9 µM (inactive) | 28.6 µM (inactive) | 12.6 µM (inactive) | 15.2 µM (inactive) | 18.2 µM (inactive) | 23.7 µM (inactive) | 11.1 µM (inactive) | 25.3 µM (inactive) | 12.3 µM (inactive) | 27.7 µM (inactive) | 17.5 µM (inactive) | 18.6 µM (inactive) | 10.4 µM (inactive) | 12.7 µM (inactive) | 18.8 µM (inactive) |
| CC1CC(c2ccccc2)=Nc2ccccc2S1 (stereo not given) | > 100 µM (inactive) | > 100 µM (inactive) | > 100 | > 100 µM (inactive) | 77.8 µM (inactive) | > 100 µM (inactive) | > 100 µM (inactive) | 41.9 µM (inactive) | > 100 µM (inactive) | 68.5 µM (inactive) | > 100 µM (inactive) | > 100 µM (inactive) | > 100 µM (inactive) | > 100 µM (inactive) | > 100 µM (inactive) | > 100 µM (inactive) | > 100 µM (inactive) | > 100 µM (inactive) | 44.1 µM (inactive) | > 100 µM (inactive) |
| COC1=CC(=O)[C@@]2(C)C(C)[C@H](c3ccccc3)[C@H]2C1=O (stereo not given in full) | > 100 µM (inactive) | > 100 µM (inactive) | > 100 | > 100 µM (inactive) | > 100 µM (inactive) | > 100 µM (inactive) | > 100 µM (inactive) | > 100 µM (inactive) | > 100 µM (inactive) | > 100 µM (inactive) | > 100 µM (inactive) | > 100 µM (inactive) | > 100 µM (inactive) | > 100 µM (inactive) | > 100 µM (inactive) | > 100 µM (inactive) | > 100 µM (inactive) | > 100 µM (inactive) | > 100 µM (inactive) | > 100 µM (inactive) |
